In paper PMC5400099, “5-Hydroxyethyl-3-tetradecanoyltetramic acid represents a novel treatment for intravascular catheter infections due to Staphylococcus aureus” (Journal of Antimicrobial Chemotherapy, 2016):
In brackets after ≈: the same amount, converted by molar mass. Several values for one entry are separate records, joined by “and”; a condition that tells them apart may be missing. Equal entries are not always repeated. Entries after “also recorded” stand apart in the source; their conditions may differ.

Tests used:
S. aureus strain USA300 = assay: MIC by broth microdilution (CLSI), strain USA300; assay type: cell-based; settings: Staphylococcus aureus; USA300 (MRSA), Mueller–Hinton broth
Protocol: (§1) Community-acquired MRSA (CA-MRSA) strain USA300, its isogenic agr mutant,[17] the hospital-acquired MRSA (HA-MRSA) strain BH1CC,[18] the HA-MSSA strain BH48[19] and the MSSA strain SH1000[20] were cultured in Mueller–Hinton broth for susceptibility testing or in RPMI-1640 (Gibco) for biofilm formation. For the rat jugular vein catheter infection model, the S. aureus strain USA300 (LAC) lux[21] was used.
(§2) 5HE-C14-TMA and C14-TOA were synthesized as described previously[9] and C14-TTA as described in the Supplementary data available at JAC Online. Stock solutions of the compounds in DMSO at 10–50 mM were further diluted into tissue culture media or sodium chloride for the in vivo experiments. A DMSO solvent control was used in all in vitro experiments. The following antibiotics were used: vancomycin (Vancocin; Flynn Pharma Ltd., Republic of Ireland), daptomycin (Cubicin; Novartis, UK), gentamicin (Hospira, UK) and tigecycline (Tygacil; Pfizer Inc.). MICs were determined by broth microdilution in Mueller–Hinton broth, as recommended by the CLSI.

S. aureus strain BH1CC = assay: MIC by broth microdilution (CLSI), strain BH1CC; assay type: cell-based; settings: Staphylococcus aureus; BH1CC (MRSA), Mueller–Hinton broth
Protocol: as §1, §2

S. aureus strain SH1000 = assay: MIC by broth microdilution (CLSI), strain SH1000; assay type: cell-based; settings: Staphylococcus aureus; SH1000 (MSSA), Mueller–Hinton broth
Protocol: as §1, §2

S. aureus strain BH48 = assay: MIC by broth microdilution (CLSI), strain BH48; assay type: cell-based; settings: Staphylococcus aureus; BH48 (MSSA), Mueller–Hinton broth
Protocol: as §1, §2

[1] = system: MRSA (USA300 JE2 and BH1CC) and MSSA (SH1000 and BH48) strains; assay: MIC by broth microdilution, MRSA and MSSA strains; assay type: cell-based, Staphylococcus aureus; settings: MRSA and MSSA strains investigated
Protocol: as §1, §2

S. aureus USA300 LAC = assay: Bactericidal activity (time-kill, viable counts); assay type: cell-based, Staphylococcus aureus; settings: 8 × MIC
Protocol: S. aureus USA300 LAC was grown overnight in LB medium, diluted 250-fold and grown to an OD600 0.5. Cells were diluted to 1 × 10^6 per mL in challenge medium (LB plus 5HE-C14-TMA, C14-TOA or C14-TTA at 8 × MIC). Samples were removed and viable counts determined at 30 min intervals for the first hour followed by hourly sampling. The CLSI defines a compound as bactericidal if it reduces the starting inoculum colony count by at least 99.9% (3-logs).

[2] = system: S. aureus transmembrane potential; assay: Dissipation of bacterial membrane potential, DiSC3(5) fluorescence; assay type: cell-based, Staphylococcus aureus; settings: 30 μM
Protocol: Transmembrane potential was determined as described by Breeuwer and Abee[23] Staphylococcal cells were resuspended in potassium phosphate buffer (50 mM, pH 7) containing 5 μM of the cationic fluorescent dye DiSC3(5) (Invitrogen) and fluorescence determined (excitation 650 nm, emission 680 nm).

Haemolysis assay = assay type: cell-based; settings: red blood cells; human RBC; read-out: CC50 (haemolytic activity)
Protocol: Human blood containing EDTA (1.6 g/L) was centrifuged at 1000 g for 5 min. Red blood cells (RBC) were washed twice with PBS, diluted 2-fold and incubated with compounds or Triton X100 (positive control) at 0.5% (v/v). A570 was determined to quantify haemolysis. IC50s were derived from the corresponding dose–response curves.

[3] = system: IL-8 and TNF-α release in human blood; assay type: cell-based
Protocol: EDTA-treated human blood was incubated in microtitre wells containing either S. aureus USA300 biofilm, 5HE-C14-TMA (at 256 mg/L) only or biofilm with 5HE-C14-TMA (at 256 mg/L) and incubated for 2 h at 37 °C. Plasma samples were collected by centrifugation (1000 g) and assayed for human cytokines using a Bio-Plex 200 (Bio-Rad). A standard curve was employed to maximize sensitivity for samples containing low cytokine levels. At least three different donor blood samples (with three replicates for each) were used.

[4] = system: S. aureus USA300lux biofilm; assay: Rat IVC (jugular vein catheter) biofilm infection model; assay type: in vivo; settings: CLS 512 mg/L, 40 μL daily for 5 days
Protocol: Rats (male, Sprague–Dawley) were pre-implanted with jugular vein polyurethane catheters (13.5 cm long, outside diameter 1.1 mm, inside diameter 0.6 mm) (Charles River, UK). Daily flushing was performed with 150 μL sodium chloride [0.1% (w/v)] following introduction of 40 μL heparin (100 IU), sodium chloride 0.1% (w/v) within the lumen. IVC-biofilm infection was developed as previously reported.[24–26] Catheters were inoculated with 40 μL S. aureus USA300lux suspension at 1 × 10^4 cfu/mL ‘locked’ within the catheter for 1 day. Intravenous vancomycin (50 mg/kg) was administered twice daily at 12 h intervals to prevent systemic spread of infection. CLS consisting of 5HE-C14-TMA (40 μL) at 512 mg/L in sodium chloride 0.1% (w/v) was administered daily for 5 days upon development of infection. After 5 days of treatment, catheters were removed and luminescence imaged using a Perkin Elmer IVIS Spectrum instrument (exposure, 20 s; binning: 4, f1). Bacteria were harvested from the catheters by treatment with TrypLE^TM Express (Gibco) and washing prior to determining viable counts.

S. aureus = settings: cited from earlier work
staphylococcal membrane = system: staphylococcal membrane; design: method as in PMID 24592914; settings: binding to the staphylococcal membrane, single site model; cited from earlier work
[5] = 256 mg/L for 2 h, sub-bactericidal dose

CCCCCCCCCCCCCC(=O)C1=C(O)N[C@@H](CCO)C1=O [5HE-C14-TMA, 5-hydroxyethyl-3-tetradecanoyltetramic acid]
MIC (S. aureus strain USA300): 6.25 µM and 2 µg/mL
MIC (S. aureus strain BH1CC): 6.25 µM and 2 µg/mL
MIC (S. aureus strain SH1000): 6.25 µM and 2 µg/mL
MIC (S. aureus strain BH48): 6.25 µM and 2 µg/mL
MIC [1]: 2 µg/mL (≈ 5.66 µM)
MIC ([1]; Staphylococcus aureus): 2 to 4 µg/mL (≈ 5.66 to 11.3 µM)
Reduction of viability (S. aureus USA300 LAC; USA300, over 30 min): 3 logs
Bactericidal activity (CLSI: at least 3-log reduction) (S. aureus USA300 LAC; planktonic USA300): bactericidal
Membrane depolarization (DiSC3(5) fluorescence) [2]: increase in fluorescence, indicative of membrane depolarization
CC50 (Haemolysis assay): 246 µM and 87 µg/mL
IL-8 level in blood exposed to USA300 biofilm with compound [3, 5]: substantial reductions
TNF-α level in blood exposed to USA300 biofilm with compound [3, 5]: substantial reductions
Cytokine levels in whole human blood, agent only ([3]; 256 mg/L, 2 h, no biofilm): no increase in cytokine levels
IL-8 and TNF-α levels in response to USA300 agr mutant biofilm with compound ([3]; same dose (256 mg/L), agr mutant biofilm): no further effect
Catheter biofilm after CLS treatment [4]: effectively eradicated; also recorded: highly effective in the eradication of MRSA biofilm
Increase in growth inhibitory activity relative to 5HE-C10-TMA (S. aureus; planktonic S. aureus): 8 fold
MIC (S. aureus; towards S. aureus): 12.5 µM (≈ 4.42 µg/mL)
Kd (staphylococcal membrane): 4 µM
